Literature values, collected in patent publication US6303141A, “Transdermally administrable medicament with ACE inhibitors” (Hexal AG, priority 1995, dated 2001).

Conditions: in vivo

oral bioavailability	Structure (SMILES)
28%	CCOC(=O)[C@H](CCc1ccccc1)N[C@H]1CCc2ccccc2N(CC(=O)O)C1=O [benazepril]
approximately 70%	C[C@H](CS)C(=O)N1CCC[C@H]1C(=O)O [captopril]
